Columns and labels:
[1] = molecular target: T1, Serine/threonine-protein kinase TAO2 (Homo sapiens) (UniProt Q9UL54); conditions: Compound concentration 1000.0 nM
T1 sequence (whole entry): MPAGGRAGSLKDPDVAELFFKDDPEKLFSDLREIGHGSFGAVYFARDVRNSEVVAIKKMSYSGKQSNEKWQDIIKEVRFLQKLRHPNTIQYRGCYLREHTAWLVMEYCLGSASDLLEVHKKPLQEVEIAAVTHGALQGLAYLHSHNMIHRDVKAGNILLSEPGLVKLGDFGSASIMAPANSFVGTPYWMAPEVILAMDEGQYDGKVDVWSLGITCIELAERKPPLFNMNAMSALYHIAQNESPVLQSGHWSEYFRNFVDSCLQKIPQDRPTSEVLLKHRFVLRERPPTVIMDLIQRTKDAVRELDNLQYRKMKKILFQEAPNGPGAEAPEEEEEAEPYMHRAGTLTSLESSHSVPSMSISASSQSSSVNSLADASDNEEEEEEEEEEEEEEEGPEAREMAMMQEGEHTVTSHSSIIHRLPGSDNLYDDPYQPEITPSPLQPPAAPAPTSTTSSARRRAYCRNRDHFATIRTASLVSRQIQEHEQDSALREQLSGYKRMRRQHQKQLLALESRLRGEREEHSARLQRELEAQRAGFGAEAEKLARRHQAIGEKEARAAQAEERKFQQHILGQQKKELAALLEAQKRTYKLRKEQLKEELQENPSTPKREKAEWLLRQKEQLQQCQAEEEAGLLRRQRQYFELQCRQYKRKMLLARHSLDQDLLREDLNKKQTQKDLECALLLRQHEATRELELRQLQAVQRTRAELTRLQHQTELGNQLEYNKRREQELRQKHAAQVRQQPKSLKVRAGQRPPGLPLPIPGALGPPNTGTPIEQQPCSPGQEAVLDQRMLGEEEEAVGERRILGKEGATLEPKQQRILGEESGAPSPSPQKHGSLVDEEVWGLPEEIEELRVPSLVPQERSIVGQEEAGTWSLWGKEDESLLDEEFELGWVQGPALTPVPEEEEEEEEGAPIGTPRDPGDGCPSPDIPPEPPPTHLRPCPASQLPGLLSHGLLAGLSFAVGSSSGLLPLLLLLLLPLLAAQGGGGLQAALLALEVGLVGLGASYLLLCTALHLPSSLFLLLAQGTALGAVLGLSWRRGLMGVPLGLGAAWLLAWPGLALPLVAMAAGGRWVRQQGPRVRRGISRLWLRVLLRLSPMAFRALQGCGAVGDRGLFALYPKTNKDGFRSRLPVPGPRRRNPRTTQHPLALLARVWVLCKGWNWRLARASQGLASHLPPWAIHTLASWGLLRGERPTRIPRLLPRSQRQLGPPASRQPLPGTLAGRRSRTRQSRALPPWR

[2] = molecular target: Hepatocyte growth factor receptor (Homo sapiens) (UniProt P08581); conditions: Compound concentration 1000.0 nM
Chain of Hepatocyte growth factor receptor (Homo sapiens) (P08581 whole entry): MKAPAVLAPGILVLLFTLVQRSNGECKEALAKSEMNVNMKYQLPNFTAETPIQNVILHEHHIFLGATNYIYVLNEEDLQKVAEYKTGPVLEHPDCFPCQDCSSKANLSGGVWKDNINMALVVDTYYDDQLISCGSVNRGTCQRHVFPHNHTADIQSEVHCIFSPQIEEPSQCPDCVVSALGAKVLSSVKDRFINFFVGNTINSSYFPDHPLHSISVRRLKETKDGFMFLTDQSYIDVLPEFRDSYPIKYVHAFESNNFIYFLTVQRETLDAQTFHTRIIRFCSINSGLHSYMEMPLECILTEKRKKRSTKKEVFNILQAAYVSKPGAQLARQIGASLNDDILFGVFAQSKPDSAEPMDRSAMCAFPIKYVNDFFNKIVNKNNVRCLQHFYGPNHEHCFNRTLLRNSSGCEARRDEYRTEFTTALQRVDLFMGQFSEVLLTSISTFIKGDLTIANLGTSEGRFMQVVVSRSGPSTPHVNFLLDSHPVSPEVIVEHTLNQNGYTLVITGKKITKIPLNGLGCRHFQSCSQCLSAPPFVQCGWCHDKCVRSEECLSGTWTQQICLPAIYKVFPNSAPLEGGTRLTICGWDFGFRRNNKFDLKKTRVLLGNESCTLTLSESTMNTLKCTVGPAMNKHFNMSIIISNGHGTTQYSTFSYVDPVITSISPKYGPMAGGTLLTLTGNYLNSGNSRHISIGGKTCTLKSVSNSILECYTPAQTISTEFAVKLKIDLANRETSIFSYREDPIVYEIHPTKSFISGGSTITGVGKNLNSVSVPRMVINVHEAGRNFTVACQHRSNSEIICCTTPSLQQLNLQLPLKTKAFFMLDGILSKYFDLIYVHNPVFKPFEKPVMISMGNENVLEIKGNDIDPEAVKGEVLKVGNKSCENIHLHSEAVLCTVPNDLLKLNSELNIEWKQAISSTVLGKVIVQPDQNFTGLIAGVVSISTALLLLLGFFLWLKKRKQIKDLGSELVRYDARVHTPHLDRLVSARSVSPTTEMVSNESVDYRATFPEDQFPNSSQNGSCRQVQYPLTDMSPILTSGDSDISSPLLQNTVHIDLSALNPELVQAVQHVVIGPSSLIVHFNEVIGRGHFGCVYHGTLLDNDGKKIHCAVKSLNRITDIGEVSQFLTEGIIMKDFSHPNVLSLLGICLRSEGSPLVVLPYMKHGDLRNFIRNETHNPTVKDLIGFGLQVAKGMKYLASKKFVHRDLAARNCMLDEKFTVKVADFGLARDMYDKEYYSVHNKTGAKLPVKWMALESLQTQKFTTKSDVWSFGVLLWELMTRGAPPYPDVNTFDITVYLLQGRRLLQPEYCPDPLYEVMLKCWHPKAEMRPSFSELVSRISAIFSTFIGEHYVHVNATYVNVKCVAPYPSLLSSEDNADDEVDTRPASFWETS

[3] = molecular target: Fibroblast growth factor receptor 4 (Homo sapiens) (UniProt P22455); conditions: Compound concentration 1000.0 nM
Chain of Fibroblast growth factor receptor 4 (Homo sapiens) (P22455 22-802 limits assumed): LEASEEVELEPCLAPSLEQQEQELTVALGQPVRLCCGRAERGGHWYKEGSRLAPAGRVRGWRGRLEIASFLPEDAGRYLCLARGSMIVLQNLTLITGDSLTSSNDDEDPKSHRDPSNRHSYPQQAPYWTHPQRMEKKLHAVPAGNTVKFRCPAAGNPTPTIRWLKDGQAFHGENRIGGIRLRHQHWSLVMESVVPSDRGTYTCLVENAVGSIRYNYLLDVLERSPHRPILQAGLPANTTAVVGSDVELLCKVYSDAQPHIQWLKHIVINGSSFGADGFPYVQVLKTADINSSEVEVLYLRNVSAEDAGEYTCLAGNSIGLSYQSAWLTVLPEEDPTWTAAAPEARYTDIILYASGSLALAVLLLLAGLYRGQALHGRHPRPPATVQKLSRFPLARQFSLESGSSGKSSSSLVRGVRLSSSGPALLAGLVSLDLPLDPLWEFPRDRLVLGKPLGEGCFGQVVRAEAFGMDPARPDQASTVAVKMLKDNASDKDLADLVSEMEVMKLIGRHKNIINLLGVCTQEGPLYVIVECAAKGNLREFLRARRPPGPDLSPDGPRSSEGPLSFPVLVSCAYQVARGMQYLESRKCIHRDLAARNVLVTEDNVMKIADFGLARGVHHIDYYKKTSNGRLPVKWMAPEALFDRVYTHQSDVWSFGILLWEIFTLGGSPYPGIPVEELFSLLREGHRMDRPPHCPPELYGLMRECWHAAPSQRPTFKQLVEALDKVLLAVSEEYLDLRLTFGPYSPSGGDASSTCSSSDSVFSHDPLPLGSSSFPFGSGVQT

[4] = molecular target: T2, Ephrin type-A receptor 1 (Homo sapiens) (UniProt P21709); conditions: Compound concentration 1000.0 nM
T2 sequence (whole entry): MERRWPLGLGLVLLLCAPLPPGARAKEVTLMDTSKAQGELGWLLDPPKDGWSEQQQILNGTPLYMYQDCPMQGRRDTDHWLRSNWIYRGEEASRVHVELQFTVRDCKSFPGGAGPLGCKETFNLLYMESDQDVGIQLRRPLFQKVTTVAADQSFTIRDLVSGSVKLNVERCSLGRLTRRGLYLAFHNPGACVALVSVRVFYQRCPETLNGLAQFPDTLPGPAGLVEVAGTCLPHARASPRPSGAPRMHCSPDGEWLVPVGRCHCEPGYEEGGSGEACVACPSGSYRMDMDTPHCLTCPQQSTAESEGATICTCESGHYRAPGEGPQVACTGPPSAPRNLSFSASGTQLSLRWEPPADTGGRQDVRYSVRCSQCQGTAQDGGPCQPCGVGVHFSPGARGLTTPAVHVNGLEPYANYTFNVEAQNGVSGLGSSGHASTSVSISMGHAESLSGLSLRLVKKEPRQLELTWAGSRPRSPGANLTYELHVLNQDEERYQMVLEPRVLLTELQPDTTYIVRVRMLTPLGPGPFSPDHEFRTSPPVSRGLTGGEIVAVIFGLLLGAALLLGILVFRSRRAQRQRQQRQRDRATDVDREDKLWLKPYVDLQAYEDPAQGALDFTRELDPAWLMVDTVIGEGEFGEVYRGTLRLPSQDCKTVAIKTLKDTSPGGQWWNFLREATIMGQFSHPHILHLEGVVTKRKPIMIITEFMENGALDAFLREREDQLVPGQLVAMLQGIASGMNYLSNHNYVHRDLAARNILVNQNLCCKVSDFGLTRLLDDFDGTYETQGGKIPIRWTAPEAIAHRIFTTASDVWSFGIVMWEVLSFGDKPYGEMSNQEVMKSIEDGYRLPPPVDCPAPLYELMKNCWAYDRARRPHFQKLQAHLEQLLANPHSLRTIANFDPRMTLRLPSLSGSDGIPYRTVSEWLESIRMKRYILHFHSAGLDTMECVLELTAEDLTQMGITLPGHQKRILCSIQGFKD

[5] = molecular target: Kappa-type opioid receptor (Homo sapiens) (UniProt P41145); conditions: Compound concentration 10.0 uM
Chain of Kappa-type opioid receptor (Homo sapiens) (P41145 whole entry): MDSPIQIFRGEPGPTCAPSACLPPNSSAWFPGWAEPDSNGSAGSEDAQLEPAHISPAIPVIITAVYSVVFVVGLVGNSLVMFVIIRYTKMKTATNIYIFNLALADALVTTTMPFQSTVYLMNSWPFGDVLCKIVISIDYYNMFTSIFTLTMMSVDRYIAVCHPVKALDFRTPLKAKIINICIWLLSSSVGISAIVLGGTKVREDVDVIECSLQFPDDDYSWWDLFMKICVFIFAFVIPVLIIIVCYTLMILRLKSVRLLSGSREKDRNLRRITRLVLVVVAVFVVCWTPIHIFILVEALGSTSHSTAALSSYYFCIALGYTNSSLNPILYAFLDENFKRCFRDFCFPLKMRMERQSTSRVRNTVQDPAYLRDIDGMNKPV

[6] = molecular target: Serine/threonine-protein kinase TAO1 (Homo sapiens) (UniProt Q7L7X3); conditions: Compound concentration 1000.0 nM
Chain of Serine/threonine-protein kinase TAO1 (Homo sapiens) (Q7L7X3 whole entry): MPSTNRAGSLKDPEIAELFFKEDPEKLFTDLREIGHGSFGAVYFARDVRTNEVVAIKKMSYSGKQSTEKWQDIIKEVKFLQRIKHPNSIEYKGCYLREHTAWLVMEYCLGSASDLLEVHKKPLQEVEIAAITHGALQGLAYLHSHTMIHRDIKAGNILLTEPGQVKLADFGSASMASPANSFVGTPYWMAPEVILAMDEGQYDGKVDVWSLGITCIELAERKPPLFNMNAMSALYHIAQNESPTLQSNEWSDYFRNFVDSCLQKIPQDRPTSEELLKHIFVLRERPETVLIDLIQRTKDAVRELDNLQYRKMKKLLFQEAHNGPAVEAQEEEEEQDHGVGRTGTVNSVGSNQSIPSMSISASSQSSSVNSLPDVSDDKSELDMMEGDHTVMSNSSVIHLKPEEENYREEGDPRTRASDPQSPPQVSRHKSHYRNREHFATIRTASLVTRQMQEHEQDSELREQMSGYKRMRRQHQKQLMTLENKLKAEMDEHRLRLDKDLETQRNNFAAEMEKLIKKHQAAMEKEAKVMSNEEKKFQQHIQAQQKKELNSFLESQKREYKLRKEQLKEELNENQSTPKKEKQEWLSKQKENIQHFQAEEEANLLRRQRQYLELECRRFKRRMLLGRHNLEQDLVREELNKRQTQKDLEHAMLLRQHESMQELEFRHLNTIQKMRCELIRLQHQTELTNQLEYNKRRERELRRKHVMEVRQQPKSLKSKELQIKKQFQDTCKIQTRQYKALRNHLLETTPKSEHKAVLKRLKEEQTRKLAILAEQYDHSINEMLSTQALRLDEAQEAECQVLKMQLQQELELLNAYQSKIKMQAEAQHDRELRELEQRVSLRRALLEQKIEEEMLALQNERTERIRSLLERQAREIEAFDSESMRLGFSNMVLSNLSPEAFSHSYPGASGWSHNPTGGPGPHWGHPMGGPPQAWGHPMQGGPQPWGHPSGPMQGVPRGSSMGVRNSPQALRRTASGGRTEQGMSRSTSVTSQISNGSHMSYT

[7] = molecular target: Serine/threonine-protein kinase Nek7 (Homo sapiens) (UniProt Q8TDX7); conditions: Compound concentration 1000.0 nM
Chain of Serine/threonine-protein kinase Nek7 (Homo sapiens) (Q8TDX7 whole entry, looked up): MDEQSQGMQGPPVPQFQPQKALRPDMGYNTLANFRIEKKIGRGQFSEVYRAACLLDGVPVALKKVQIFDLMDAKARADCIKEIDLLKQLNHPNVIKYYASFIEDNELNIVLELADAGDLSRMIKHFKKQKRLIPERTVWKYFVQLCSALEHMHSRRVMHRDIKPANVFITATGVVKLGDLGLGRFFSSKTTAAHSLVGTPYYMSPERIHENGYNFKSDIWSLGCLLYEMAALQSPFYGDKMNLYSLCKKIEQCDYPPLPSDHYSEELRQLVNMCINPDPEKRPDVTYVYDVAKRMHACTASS

CN(C)C(=O)Cn1cc(-c2nc(C3(c4ccc(-c5cnc(N)nc5)cc4)CC3)no2)cn1 [BI 0153]
inactive: residual activity [1] 100% | residual activity [2] 73% | residual activity [3] 100% | residual activity [4] 100% | inhibition [5] 16.2% | residual activity [6] 86% | residual activity [7] 100%

CN(C)C(=O)Cn1cc(-c2nc([C@@](C)(c3ccc(-c4cnc(N)nc4)cc3)C3CC3)no2)cn1 [BI 665915]
inactive: residual activity [1] 81% | residual activity [2] 100% | residual activity [3] 88% | residual activity [4] 97% | inhibition [5] 33.9% | residual activity [6] 75% | residual activity [7] 90%
